Data from patent EP0973746B1, “SUBSTITUTED 3-CYANO QUINOLINES” (Wyeth Holdings Corporation, priority 1997, dated 1998).
Converted amounts (≈) assume the structure as drawn. Like-named read-outs stand apart in the source and are kept apart here.

Columns and labels:
SW948 = assay: Inhibition of cancer cell growth as measured by cell number, SW948; format: cell-based; conditions: Homo sapiens, read-out: IC50 SW948
[1] = target: epidermal growth factor receptor kinase (Homo sapiens, UniProt P00533); assay: biochemical
A2780DDP = assay: Inhibition of cancer cell growth as measured by cell number, A2780DDP; format: cell-based; conditions: Homo sapiens, read-out: IC50 A2780DDP
A431 [2] = assay: Inhibition of cell growth by incorporation of [3H]-thymidine, A431; format: cell-based, human; conditions: Homo sapiens
T47D = assay: Inhibition of cancer cell growth as measured by cell number, T47D; format: cell-based; conditions: Homo sapiens
DU145 = assay: Inhibition of cancer cell growth as measured by cell number, DU145; format: cell-based; conditions: Homo sapiens, read-out: IC50 DU145
MIP = assay: Inhibition of cancer cell growth as measured by cell number, MIP; format: cell-based; conditions: Homo sapiens; cell number, Sulforhodamine B, 48 hours exposure; Table 4; read-out: IC50 MIP
CCRF-CFM = assay: Inhibition of cancer cell growth as measured by cell number, CCRF-CFM; format: cell-based; conditions: Homo sapiens, read-out: IC50 CCRF-CFM
NEC = assay: Inhibition of cancer cell growth as measured by cell number, NEC; format: cell-based; conditions: Homo sapiens, read-out: IC50 NEC
SW620 = assay: Inhibition of cancer cell growth as measured by cell number, SW620; format: cell-based, human; conditions: Homo sapiens, SW-620, 48 h, Table 4;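 further: SW620 was included as a cell line with little or no EGFR or HER2/neu expression, in contrast to receptor-overexpressing lines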
From the text: (§1) The cell lines were chosen since they overexpressed epidermal growth factor receptor (EGFR) (i.e. A431) or HER2/neu (SKBR3), or had little to no expression of the these receptors (SW620, LOX, MCF7).

LNCAP = assay: Inhibition of cancer cell growth as measured by cell number, LNCAP; format: cell-based; conditions: Homo sapiens
CACO2 = assay: Inhibition of cancer cell growth as measured by cell number, CACO2; format: cell-based; conditions: Homo sapiens, read-out: IC50 CACO2
LX1 = assay: Inhibition of cancer cell growth as measured by cell number, LX1; format: cell-based; conditions: Homo sapiens, read-out: IC50 LX1
LOX = assay: Inhibition of cancer cell growth as measured by cell number, LOX; format: cell-based, human; conditions: Homo sapiens, LOX, 48 h, Table 6;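 further: LOX cells served as a line with low or absent EGFR and HER2/neu expression, in contrast to receptor-overexpressing lines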
From the text: as §1

CCL228 = assay: Inhibition of cancer cell growth as measured by cell number, CCL228; format: cell-based; conditions: Homo sapiens, read-out: IC50 CCL228
B7474 = assay: Inhibition of cancer cell growth as measured by cell number, B7474; format: cell-based; conditions: Homo sapiens, read-out: IC50 B7474
A27805 = assay: Inhibition of cancer cell growth as measured by cell number, A27805; format: cell-based; conditions: Homo sapiens, read-out: IC50 A27805
SKBR3 = assay: Inhibition of cancer cell growth as measured by cell number, SKBR3; format: cell-based, human; conditions: Homo sapiens, Table 7;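 further: SK-BR-3 cells were selected as a line overexpressing HER2/neu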
From the text: as §1

[3] = target: recombinant human MEK 1 (MAPKK) and recombinant human ERK2 (MAPK); assay: Mitogen Activated Protein Kinase (MAPK) assay, two component coupled MEK 1 / ERK2; format: biochemical; conditions: separate entries for the same compound = evaluated more than one time;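 further: MEK 1-activated ERK2 phosphorylates MBP or Myc peptide with 33P-ATP, filter capture and scintillation counting, inhibitor preincubated with ERK2 30 min at 0 °C, inhibition relative to uninhibited control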
Method: To evaluate inhibitors of the MAP (mitogen activated protein) kinase a two component coupled standard pharmacological test procedure, which measures phosphorylation of a serine/threonine residue in an appropriate sequence in the substrate in the presence and absence of a putative inhibitor, was used. Recombinant human MEK 1 (MAPKK) was first used to activate recombinant human ERK2 (MAPK) and the activated MAPK (ERK) was incubated with substrate (MBP peptide or MYC peptide) in the presence of ATP, Mg^+2 and radiolabeled ^33P ATP. The phosphorylated peptide was captured on a P 81 phosphocellulose filter (paper filter or embedded in microtiter plate) washed and counted by scintillation methods.
The peptide substrates used in the assay are MBP, peptide substrate ([sequence]), or synthetic Myc substrate, ([sequence]•5 TFA. The recombinant enzymes used were prepared as GST fusion proteins of human ERK 2 and human MEK 1. Inhibitor samples were prepared as 10X stocks in 10% DMSO and an appropriate aliquot was used to deliver either 10 ug/ml for a single point screening dose or 100, 10, 1, and 0.1 uM final concentration for a dose response curve. Final DMSO concentrations were less than or equal to 1%.
The reaction was run as follows in 50 mM Tris kinase buffer, pH 7.4 in a reaction volume of 50 ul. The appropriate volume of kinase buffer and inhibitor sample was added to the tube. Appropriate dilution of enzyme was delivered to give 2-5 ug recombinant MAPK (Erk ) per tube. The inhibitor was incubated with MAPK (Erk) for 30 min at 0 deg. […] Recombinant Mek (MAPKK) ( 0.5-2.5 ug) or fully activated Mek (0.05-0.1 units) was added to activate the Erk and incubated for 30 min at 30° C. […] Samples were incubated at 30°C for 30 minutes and the reaction was stopped by adding 25 µl of ice cold 10 %TCA .After samples were chilled on ice for 30 min, 20 µl of sample was transferred onto P 81 phosphocellulose filter paper or appropriate MTP with embedded P 81 filter. Filter papers or MTP were washed 2 times with a large volume of 1% acetic acid, then 2 times with water. The filters or MTP were briefly air dried before addition of scintillant and samples were counted in the appropriate scintillation counter set up for reading ^33P isotope.
The raw data was captured as cpm. Sample replicates were averaged and corrected for background count. Mean cpm data was tabulated by group and % inhibition by a test compound was calculated as (corrected cpm control- corrected. cpm sample/control) X 100 = % inhibition.

LS174T = assay: Inhibition of cancer cell growth as measured by cell number, LS174T; format: cell-based; conditions: Homo sapiens
A549 = assay: Inhibition of cancer cell growth as measured by cell number, A549; format: cell-based; conditions: Homo sapiens, read-out: IC50 A549
HCT15 = assay: Inhibition of cancer cell growth as measured by cell number, HCT15; format: cell-based; conditions: Homo sapiens, read-out: IC50 HCT15
CX1 = assay: Inhibition of cancer cell growth as measured by cell number, CX1; format: cell-based; conditions: Homo sapiens, read-out: IC50 CX1
HL60 = assay: Inhibition of cancer cell growth as measured by cell number, HL60; format: cell-based; conditions: Homo sapiens, read-out: IC50 HL60
A431 [4] = assay: Inhibition of cancer cell growth as measured by cell number, A431; format: cell-based, human; conditions: Homo sapiens, A-431, 48 h, Table 6;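 further: human A431 line, picked because it overexpresses epidermal growth factor receptor (EGFR)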
From the text: as §1

COLO205 = assay: Inhibition of cancer cell growth as measured by cell number, COLO205; format: cell-based; conditions: Homo sapiens, read-out: IC50 COLO205
PC3 = assay: Inhibition of cancer cell growth as measured by cell number, PC3; format: cell-based; conditions: Homo sapiens, read-out: IC50 PC3
HTB161 = assay: Inhibition of cancer cell growth as measured by cell number, HTB161; format: cell-based; conditions: Homo sapiens, read-out: IC50 HTB161
MCF7 = assay: Inhibition of cancer cell growth as measured by cell number, MCF7; format: cell-based, human; conditions: Homo sapiens, MCF7, 48 h, Table 5;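 further: MCF7 was included as a line with little or no EGFR or HER2/neu expression, in contrast to the receptor-overexpressing lines of the panel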
From the text: as §1

[5] = read-out: IC50 SW620, cell number, Sulforhodamine B, 48 hours exposure
[6] = read-out: IC50 LOX, cell number, Sulforhodamine B, 48 hours exposure
[7] = SK-BR-3, 48 h, read-out: IC50 SKBR3, cell number, Sulforhodamine B, 48 hours exposure
[8] = read-out: IC50 A431, cell number, Sulforhodamine B, 48 hours exposure
[9] = read-out: IC50 MCF7, cell number, Sulforhodamine B, 48 hours exposure
[10] = cell number, Sulforhodamine B, 48 hours exposure, Table 4
[11] = cell number, Sulforhodamine B, 48 hours exposure, Table 6

epidermal growth factor receptor kinase, sequence (P00533 25-1210): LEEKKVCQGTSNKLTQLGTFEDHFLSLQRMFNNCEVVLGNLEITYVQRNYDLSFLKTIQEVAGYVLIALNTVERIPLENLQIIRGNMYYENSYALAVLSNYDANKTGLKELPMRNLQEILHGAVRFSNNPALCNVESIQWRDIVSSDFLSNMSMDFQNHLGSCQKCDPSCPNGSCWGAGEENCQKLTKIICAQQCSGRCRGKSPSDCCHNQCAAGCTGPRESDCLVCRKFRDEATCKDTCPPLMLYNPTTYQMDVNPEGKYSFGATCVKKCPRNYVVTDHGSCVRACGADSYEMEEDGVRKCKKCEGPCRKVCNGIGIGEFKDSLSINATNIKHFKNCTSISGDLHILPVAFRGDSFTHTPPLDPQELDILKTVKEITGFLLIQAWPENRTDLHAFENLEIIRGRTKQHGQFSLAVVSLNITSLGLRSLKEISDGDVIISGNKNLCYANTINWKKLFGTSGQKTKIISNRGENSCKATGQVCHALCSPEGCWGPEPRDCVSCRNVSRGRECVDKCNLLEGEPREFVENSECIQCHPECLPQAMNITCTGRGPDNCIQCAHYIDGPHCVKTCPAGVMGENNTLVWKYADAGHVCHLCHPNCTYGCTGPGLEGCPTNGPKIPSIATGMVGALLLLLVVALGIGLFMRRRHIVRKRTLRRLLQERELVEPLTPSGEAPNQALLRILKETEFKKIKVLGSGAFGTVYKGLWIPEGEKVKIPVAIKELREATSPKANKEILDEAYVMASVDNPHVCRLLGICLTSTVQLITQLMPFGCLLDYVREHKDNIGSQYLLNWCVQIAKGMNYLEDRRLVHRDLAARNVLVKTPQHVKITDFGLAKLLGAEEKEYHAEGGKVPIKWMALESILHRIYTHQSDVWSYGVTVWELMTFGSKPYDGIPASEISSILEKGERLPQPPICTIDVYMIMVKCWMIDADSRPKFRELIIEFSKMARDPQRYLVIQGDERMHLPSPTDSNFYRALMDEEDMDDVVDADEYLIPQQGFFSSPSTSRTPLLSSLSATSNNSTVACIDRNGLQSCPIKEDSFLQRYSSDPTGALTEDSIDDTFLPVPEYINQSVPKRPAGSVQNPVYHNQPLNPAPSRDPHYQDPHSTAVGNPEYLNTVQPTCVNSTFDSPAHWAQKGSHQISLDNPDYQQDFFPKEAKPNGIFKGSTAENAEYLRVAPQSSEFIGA

COc1cc2ncc(C#N)c(Nc3cccc(C#N)c3)c2cc1OC [Example 45, 4-[(3-Cyanophenyl)amino]-6,7-dimethoxy-3-quinolinecarbonitrile]
IC50 (SW948; SW948, 48 h): > 100 µg/mL
IC50 [1]: 1.67 µM
IC50 (A2780DDP; 48 h): 39.3 µg/mL (≈ 119 µM)
IC50 (A431 [2]; A-431, read-out: IC50 A431): 0.15 µM
IC50 (T47D; 48 h, read-out: IC50 T47D): 30 µg/mL (≈ 90.9 µM)
IC50 (DU145; DU-145, 48 h): 8.94 µg/mL (≈ 27.1 µM)
IC50 (MIP): > 100 µg/mL
IC50 (CCRF-CFM; 48 h): > 100 µg/mL
IC50 (NEC; 48 h): 72.1 µg/mL (≈ 218 µM)
IC50 (SW620; [5]): > 100 µg/mL
IC50 (LNCAP; 48 h, read-out: IC50 LNCAP): 57.8 µg/mL (≈ 175 µM)
IC50 (CACO2; Caco-2, 48 h): 0.911 µg/mL (≈ 2.76 µM)
IC50 (LX1; LX-1, 48 h): 100 µg/mL (≈ 303 µM)
IC50 (LOX; [6]): 9.06 µg/mL (≈ 27.4 µM)
IC50 (CCL228; 48 h): > 100 µg/mL
IC50 (B7474; 48 h): 86.8 µg/mL (≈ 263 µM)
IC50 (A27805; 48 h): 8.66 µg/mL (≈ 26.2 µM)
IC50 (SKBR3; [7]): 60.5 µg/mL (≈ 183 µM)
IC50 [3]: > 100 µM
IC50 (LS174T; 48 h, read-out: IC50 LS174T): 87.1 µg/mL (≈ 264 µM)
IC50 (A549; A549, 48 h): 100 µg/mL (≈ 303 µM)
IC50 (HCT15; HCT-15, 48 h): 79.7 µg/mL (≈ 241 µM)
IC50 (CX1; CX-1, 48 h): 89.7 µg/mL (≈ 271 µM)
IC50 (HL60; HL-60, 48 h): > 100 µg/mL
IC50 (A431 [4]; [8]): 2.61 µg/mL (≈ 7.9 µM)
IC50 (COLO205; COLO 205, 48 h): > 100 µg/mL
IC50 (PC3; PC-3, 48 h): 88.9 µg/mL (≈ 269 µM)
IC50 (HTB161; 48 h): 4.21 µg/mL (≈ 12.8 µM)
IC50 (MCF7; [9]): 57.8 µg/mL (≈ 175 µM)

N#Cc1cnc2ccc(N)cc2c1Nc1cccc(Br)c1 [Example 14, 6-Amino-4-[(3-bromophenyl)amino]-3-quinolinecarbonitrile]
IC50 (SW948; SW948, 48 h): > 100 µg/mL
IC50 (A2780DDP; 48 h): 5.92 µg/mL (≈ 17.5 µM)
IC50 (A431 [2]; A-431, read-out: IC50 A431): 0.1 µM
IC50 (T47D; 48 h, read-out: IC50 T47D): 7.39 µg/mL (≈ 21.8 µM)
IC50 (DU145; DU-145, 48 h): 0.91 µg/mL (≈ 2.68 µM)
IC50 (MIP): 6.19 µg/mL (≈ 18.2 µM)
IC50 (CCRF-CFM; 48 h): 7.6 µg/mL (≈ 22.4 µM)
IC50 (NEC; 48 h): 8.28 µg/mL (≈ 24.4 µM)
IC50 (SW620; [5]): 88.8 µg/mL (≈ 262 µM)
IC50 (LNCAP; 48 h, read-out: IC50 LNCAP): 8.98 µg/mL (≈ 26.5 µM)
IC50 (CACO2; Caco-2, 48 h): 0.989 µg/mL (≈ 2.91 µM)
IC50 (LX1; LX-1, 48 h): 69.6 µg/mL (≈ 205 µM)
IC50 (LOX; [6]): 2.81 µg/mL (≈ 8.29 µM)
IC50 (CCL228; 48 h): 39.4 µg/mL (≈ 116 µM)
IC50 (B7474; 48 h): 20.6 µg/mL (≈ 60.6 µM)
IC50 (A27805; 48 h): 3.59 µg/mL (≈ 10.6 µM)
IC50 (SKBR3; [7]): 43.6 µg/mL (≈ 129 µM)
IC50 [3]: > 100 µM
IC50 (LS174T; 48 h, read-out: IC50 LS174T): 39.3 µg/mL (≈ 116 µM)
IC50 (A549; A549, 48 h): 7.68 µg/mL (≈ 22.7 µM)
IC50 (HCT15; HCT-15, 48 h): 6.63 µg/mL (≈ 19.5 µM)
IC50 (CX1; CX-1, 48 h): 8.9 µg/mL (≈ 26.2 µM)
IC50 (HL60; HL-60, 48 h): 4.04 µg/mL (≈ 11.9 µM)
IC50 (A431 [4]; [8]): 1.5 µg/mL (≈ 4.42 µM)
IC50 (COLO205; COLO 205, 48 h): > 100 µg/mL
IC50 (PC3; PC-3, 48 h): 41.2 µg/mL (≈ 122 µM)
IC50 (HTB161; 48 h): 1.79 µg/mL (≈ 5.29 µM)
IC50 (MCF7; [9]): 80.7 µg/mL (≈ 238 µM)

COc1cc2ncc(C#N)c(NC3CCCCC3)c2cc1OC [Example 38, 4-(Cyclohexyamino)-6,7-dimethoxy-3-quinolinecarbonitrile]
IC50 (SW948; SW948, cell number, Sulforhodamine B, 48 hours exposure, Table 5): 10.4 µg/mL (≈ 33.5 µM)
IC50 (A2780DDP; [10]): 6.56 µg/mL (≈ 21.1 µM)
IC50 (A431 [2]; A-431, [3H]-thymidine incorporation, A431, read-out: IC50 A431): 35 µM
IC50 (T47D; cell number, Sulforhodamine B, 48 hours exposure, Table 6, read-out: IC50 T47D): 5.98 µg/mL (≈ 19.2 µM)
IC50 (DU145; DU-145, cell number, Sulforhodamine B, 48 hours exposure, Table 7): 5.15 µg/mL (≈ 16.5 µM)
IC50 (MIP): 7.75 µg/mL (≈ 24.9 µM)
IC50 (CCRF-CFM; cell number, Sulforhodamine B, 48 hours exposure, Table 7): 4.39 µg/mL (≈ 14.1 µM)
IC50 (NEC; [11]): 6.53 µg/mL (≈ 21 µM)
IC50 (SW620; cell number, Sulforhodamine B, 48 hours exposure, read-out: IC50 SW620): 31.7 µg/mL (≈ 102 µM)
IC50 (LNCAP; cell number, Sulforhodamine B, 48 hours exposure, Table 7, read-out: IC50 LNCAP): 4.58 µg/mL (≈ 14.7 µM)
IC50 (CACO2; Caco-2, cell number, Sulforhodamine B, 48 hours exposure, Table 5): 5.62 µg/mL (≈ 18 µM)
IC50 (LX1; LX-1, cell number, Sulforhodamine B, 48 hours exposure, Table 6): 7.52 µg/mL (≈ 24.2 µM)
IC50 (LOX; cell number, Sulforhodamine B, 48 hours exposure, read-out: IC50 LOX): 8.12 µg/mL (≈ 26.1 µM)
IC50 (CCL228; cell number, Sulforhodamine B, 48 hours exposure, Table 5): 8.49 µg/mL (≈ 27.3 µM)
IC50 (B7474; [11]): 17 µg/mL (≈ 54.5 µM)
IC50 (A27805; [10]): 4.58 µg/mL (≈ 14.7 µM)
IC50 (SKBR3; SK-BR-3, cell number, Sulforhodamine B, 48 hours exposure, read-out: IC50 SKBR3): 7.14 µg/mL (≈ 22.9 µM)
IC50 [3]: 45 µM
IC50 (LS174T; cell number, Sulforhodamine B, 48 hours exposure, Table 5, read-out: IC50 LS174T): 5.37 µg/mL (≈ 17.2 µM)
IC50 (A549; A549, cell number, Sulforhodamine B, 48 hours exposure, Table 6): 7.33 µg/mL (≈ 23.5 µM)
IC50 (HCT15; HCT-15, cell number, Sulforhodamine B, 48 hours exposure, Table 5): 5.16 µg/mL (≈ 16.6 µM)
IC50 (CX1; CX-1, cell number, Sulforhodamine B, 48 hours exposure, Table 4): 5.62 µg/mL (≈ 18.1 µM)
IC50 (HL60; HL-60, cell number, Sulforhodamine B, 48 hours exposure, Table 7): 4.27 µg/mL (≈ 13.7 µM)
IC50 (A431 [4]; cell number, Sulforhodamine B, 48 hours exposure, read-out: IC50 A431): 4.73 µg/mL (≈ 15.2 µM)
IC50 (COLO205; COLO 205, cell number, Sulforhodamine B, 48 hours exposure, Table 4): 6.43 µg/mL (≈ 20.6 µM)
IC50 (PC3; PC-3, cell number, Sulforhodamine B, 48 hours exposure, Table 7): 9.33 µg/mL (≈ 30 µM)
IC50 (HTB161; [10]): 3.19 µg/mL (≈ 10.3 µM)
IC50 (MCF7; cell number, Sulforhodamine B, 48 hours exposure, read-out: IC50 MCF7): 6 µg/mL (≈ 19.3 µM)
